The results in this text go back to patent US5962524A, “Depigmenting composition” (Caster, priority 1997, dated 1999).

For orientation: LD50 means the dose at which mortality reaches 50%.

Where only a bound is given, the exact number is not on record here.

In data set [1] the test system is tyrosinase. The data set can be described thus: Inhibition of the L-DOPA-tyrosinase reaction, revealed by thin layer chromatography. To be noted: 10 μl of a 1% solution in ethanol on silica gel plate; L-DOPA 1 M, tyrosinase 238 IU/ml. Format: biochemical. The method, then:
10 μl of a 1% solution of diethyl acetone-α,α'-dioxalate in ethanol (at 96%) is deposited onto G60 silica gel plates. The migration solvent is a butanol/water/acetic acid mixture (4/1/1, v/v/v) which is migrated to a height of 10 cm. After drying, an L-DOPA solution (1 M) is sprayed over the entire plate, followed by a tyrosinase solution (238 IU/ml). […] This white spot is due to the absence of tyrosinase activity converting the L-DOPA substrate into dopaquinone, the molecule which spontaneously converts into a brown pigment (brown background) in the presence of light.

In data set [2] the test system is tyrosinase. The data set can be described thus: Inhibition of the tyrosine-tyrosinase reaction, spectrophotometric assay of melanin (absorbance at 477 nm). In kind it is biochemical. Here is the method:
This is a spectrophotometric assay (absorbance at 477 nm) of the melanin produced in vitro by tyrosinase from the tyrosine substrate. […] 2.0 ml of bis Tris buffer (0.1 M, pH 6.5) and 5.0 ml of tyrosine stock solution are added to 0 ml, 1.2 ml, 2.0 ml and 2.5 ml of tyrosinase solution and the mixtures are each completed with water to a total volume of 10.0 ml. These mixtures are incubated for 1 hour and 30 minutes at 37° C. on a water bath and are then rapidly cooled to 4° C. Measurement of the absorbance of the solutions at λ=477 nm relative to a solution free of tyrosinase makes it possible to plot a calibration curve characterized by the curve equation y=0.813×+1.27×10^-3 and by a correlation coefficient equal to 0.999. The following solutions are then prepared: Control solution (100% tyrosinase activity): Solution to be ascertained: These two solutions are incubated for 1 hour 30 minutes on a water bath at 37° C. The solutions are rapidly cooled to 4° C. and the absorbance at 477 nm is then read, taking a blank free of tyrosinase as reference.

Data set [3] deals with tyrosinase in melanocytes of human skin explants. The experiment in a line: Depigmenting power in vitro on skin explants (histological evaluation of melanocyte coloration). In kind it is cell-based. To be noted: for tyrosinase activity: 15 hours at 37° C., 0.005 M L-DOPA. Here is the method: The inhibitory activity of diethyl acetone-α,α'-dioxalate on tyrisonase in melanocytes was evaluated by a histological study on skin explants.
After thawing and fixing for 30 minutes in 10% (w/v) formaldehyde solution, human skin explants obtained from an abdominoplasty are incubated for 15 hours at 37° C. in the presence of 0.005 M of L-DOPA and of the test products.
The diethyl acetone-α,α'-dioxalate is used at concentrations of 0.5%, 1% and 2% (w/v) in a 10% (v/v) solution of DMSO in water.
Control explants incubated only in the presence of 0.005 M of L-DOPA are prepared in parallel.
For the histological examination, 4 μm thick slices are taken from explants included in paraffin and the slices are stained with cresyl violet.
Optical microscopy photographs in white light allow a visual evaluation of the coloration of the melanocytes reflecting the tyrosinase activity.

For data set [4], the system named is tail pigmentation of black mice. The data set can be described thus: Depigmenting power in vivo on the tails of black mice (lightness parameter L*). The conditions noted are these: concentration ten times as great increases the efficacy by a factor of two. The method, then: L 908/1). Composition 1: gel containing 99.0% of liposomes containing a 0.5% dose of diethyl acetone-α,α'-dioxalate Composition 2: emulsion containing 10.0% of liposomes containing a 0.5% dose of diethyl acetone-α,α'-dioxalate Reference product: composition containing 2% hydroquinone Each composition is applied daily for 28 days to the tail of four black mice. For each mouse, the lightness parameter L* is measured on day D0, D15 and D28 using a chromameter.

A short description of data set [5]: Oral toxicity in rats (LD50). To be noted: rat, in vivo, administered orally to rats, read-out: 50% lethal dose (LD50). The method, then:
The evaluation of the toxicity of the active principle of the present invention, administered orally to rats, gives 50% lethal dose values (LD50) of greater than 2000 mg/kg. Diethyl acetone-α,α'-dioxalate is thus not classed as a risk product.

`CCOC(=O)C(O)=CC(=O)C=C(O)C(=O)OCC` [diethyl acetone-α,α'-dioxalate]: in the data set with tyrosinase [1], the “inhibition of the DOPA-tyrosinase reaction (white band on brown background)” value was “effectively inhibits the DOPA-tyrosinase reaction”. Besides, in the data set with tyrosinase [2] (2.58% solution in alcohol), the “in vitro production of melanin by tyrosinase from L-tyrosine” value was “effectively inhibits the in vitro production of melanin”. Further, the “Absorbance at 477 nm solution to be assayed, mean” value with tyrosinase [2] (mean of five tests, 2.0 ml of 2.58% solution in alcohol, 1 h 30 min at 37° C., control mean ≈1.16) is recorded as “≈ 0”. Also, the “Absorbance at 477 nm solution to be assayed” value in the data set with tyrosinase [2] (single tests 1-5, 2.0 ml of 2.58% solution in alcohol, 1 h 30 min at 37° C., control solution 1.16-1.23) is reported as “≈ 0”. For the same compound, the tyrosinase activity in data set [3] (0.5% (w/v) in 10% DMSO), in data set [3] (1.0% (w/v) in 10% DMSO) and in data set [3] (2.0% (w/v) in 10% DMSO) was 0 throughout. For the same compound, the “inhibition of the tyrosinase activity in skin explants” value in data set [3] (tested at 0.5%, 1.0% and 2%) is reported as “totally inhibits the tyrosinase activity”. The “dose dependence of depigmenting efficacy” value in data set [4] is given as “acts in a dose-dependent manner”. The LD50 in data set [5] is above 2000 mg/kg.

Consider `Oc1ccc(O)cc1` [hydroquinone, reference compound], for which, in data set [3] (1.1% (w/v) in 10% DMSO), the tyrosinase activity came to 0.
